Measurements taken from patent US20170101383A1, “DIAMINOTRIAZINE DERIVATIVES AS HERBICIDES” (BASF SE, priority 2014, published 2017).

How the values were obtained:
Format in all cases: in vivo
Abutilon theophrasti [1] = experiment: greenhouse post-emergence treatment, ABUTH; conditions: scale 0 to 100
Excerpt: (§1) The seeds of the test plants were sown separately for each species. For the post-emergence treatment, the test plants were first grown to a height of 3 to 15 cm, depending on the plant habit, and only then treated with the active ingredients which had been suspended or emulsified in water. For this purpose, the test plants were either sown directly and grown in the same containers, or they were first grown separately as seedlings and transplanted into the test containers a few days prior to treatment. Depending on the species, the plants were kept at 10-25° C. or 20-35° C., respectively. The test period extended over 2 to 4 weeks. During this time, the plants were tended, and their response to the individual treatments was evaluated. Evaluation was carried out using a scale from 0 to 100. 100 means no emergence of the plants, or complete destruction of at least the aerial moieties, and 0 means no damage, or normal course of growth. A moderate herbicidal activity is given at values of at least 60, a good herbicidal activity is given at values of at least 70, and a very good herbicidal activity is given at values of at least 85. The plants used in the greenhouse experiments were of the following species: [table]

Amaranthus retroflexus [2] = experiment: greenhouse post-emergence treatment, AMARE; conditions: for pest or weed control at 1000 g/ha / pest or weed control at 500 g/ha: Amaranthus retroflexus, scale 0 to 100, read-out: herbicidal activity against AMARE; for pest or weed control at 1000 g/ha: 1.000 kg/ha; for herbicidal activity against AMARE / pest or weed control at 500 g/ha: 0.500 kg/ha; for herbicidal activity against AMARE: scale 0 to 100
Excerpt: as §1

Setaria faberi [3] = experiment: greenhouse post-emergence treatment, SETFA; conditions: scale 0 to 100
Excerpt: as §1

Setaria faberi [4] = experiment: greenhouse pre-emergence treatment, SETFA; conditions: 0.500 kg/ha, scale 0 to 100
Excerpt: (§2) The seeds of the test plants were sown separately for each species. For the pre-emergence treatment, the active ingredients, which had been suspended or emulsified in water, were applied directly after sowing by means of finely distributing nozzles. The containers were irrigated gently to promote germination and growth and subsequently covered with transparent plastic hoods until the plants had rooted. This cover caused uniform germination of the test plants, unless this had been impaired by the active ingredients. Depending on the species, the plants were kept at 10-25° C. or 20-35° C., respectively. The test period extended over 2 to 4 weeks. During this time, the plants were tended, and their response to the individual treatments was evaluated. Evaluation was carried out using a scale from 0 to 100. 100 means no emergence of the plants, or complete destruction of at least the aerial moieties, and 0 means no damage, or normal course of growth. A moderate herbicidal activity is given at values of at least 60, a good herbicidal activity is given at values of at least 70, and a very good herbicidal activity is given at values of at least 85. The plants used in the greenhouse experiments were of the following species: [table]

Apera spica-venti [5] = experiment: greenhouse pre-emergence treatment, APESV; conditions: 0.500 kg/ha, scale 0 to 100
Excerpt: as §2

Alopecurus myosuroides = experiment: greenhouse pre-emergence treatment, ALOMY; conditions: 0.500 kg/ha, scale 0 to 100
Excerpt: as §2

Amaranthus retroflexus [6] = experiment: greenhouse pre-emergence treatment, AMARE; conditions: 0.500 kg/ha, scale 0 to 100
Excerpt: as §2

Abutilon theophrasti [7] = experiment: greenhouse pre-emergence treatment, ABUTH; conditions: 0.500 kg/ha, scale 0 to 100
Excerpt: as §2

Apera spica-venti [8] = experiment: greenhouse post-emergence treatment, APESV; conditions: 0.500 kg/ha, scale 0 to 100
Excerpt: as §1

| Structure (SMILES) | herbicidal activity against SETFA (Setaria faberi [4]) | herbicidal activity against APESV (Apera spica-venti [5]) | herbicidal activity against ALOMY (Alopecurus myosuroides) | herbicidal activity against AMARE (Amaranthus retroflexus [6]) | herbicidal activity against APESV (Apera spica-venti [8]) | other results |
| --- | --- | --- | --- | --- | --- | --- |
| Nc1nc(Nc2c(F)c(F)c(F)c(F)c2F)nc(N2CCCC2)n1 [Example 6] | very good (a very good herbicidal activity is given at values of at least 85) | very good (a very good herbicidal activity is given at values of at least 85) | very good (a very good herbicidal activity is given at values of at least 85) |  |  | herbicidal activity against ABUTH (Abutilon theophrasti [1]; 1.000 kg/ha): very good (a very good herbicidal activity is given at values of at least 85); pest or weed control at 1000 g/ha (Amaranthus retroflexus [2]): ≥ 85%; herbicidal activity against SETFA (Setaria faberi [3]; 1.000 kg/ha): very good (a very good herbicidal activity is given at values of at least 85) |
| Nc1nc(Nc2c(F)c(F)c(F)c(F)c2F)nc(N2CCCCCC2)n1 [Example 7] | good to very good | good to very good | good to very good |  |  | herbicidal activity against ABUTH (Abutilon theophrasti [1]; 1.000 kg/ha): very good (a very good herbicidal activity is given at values of at least 85); pest or weed control at 1000 g/ha (Amaranthus retroflexus [2]): ≥ 85% |
| CN(Cc1ccccc1)c1nc(N)nc(Nc2c(F)c(F)c(F)c(F)c2F)n1 [Example 10] |  |  |  |  |  | herbicidal activity against ABUTH (Abutilon theophrasti [1]; 1.000 kg/ha): very good (a very good herbicidal activity is given at values of at least 85); pest or weed control at 1000 g/ha (Amaranthus retroflexus [2]): ≥ 85% |
| CC1CCC(C)N1c1nc(N)nc(Nc2c(F)c(F)c(F)c(F)c2F)n1 (stereo not drawn) [Example 17] | very good (a very good herbicidal activity is given at values of at least 85) | very good (a very good herbicidal activity is given at values of at least 85) |  | very good (a very good herbicidal activity is given at values of at least 85) |  |  |
| CC1CCCN1c1nc(N)nc(Nc2c(F)c(F)c(F)c(F)c2F)n1 (stereo not drawn) [Example 20] | very good (a very good herbicidal activity is given at values of at least 85) | very good (a very good herbicidal activity is given at values of at least 85) |  | very good (a very good herbicidal activity is given at values of at least 85) |  |  |
| CC1CCCN1c1nc(N)nc(Nc2c(F)c(F)cc(F)c2F)n1 (stereo not drawn) [Example 21] | very good (a very good herbicidal activity is given at values of at least 85) |  | very good (a very good herbicidal activity is given at values of at least 85) | very good (a very good herbicidal activity is given at values of at least 85) |  |  |
| CCN(C)c1nc(N)nc(Nc2c(F)c(F)cc(F)c2F)n1 [Example 22] |  | very good (a very good herbicidal activity is given at values of at least 85) | very good (a very good herbicidal activity is given at values of at least 85) | very good (a very good herbicidal activity is given at values of at least 85) |  |  |
| Nc1nc(Nc2c(F)c(F)c(F)c(F)c2F)nc(N2CCOCC2)n1 [Example 23] |  | very good (a very good herbicidal activity is given at values of at least 85) |  | very good (a very good herbicidal activity is given at values of at least 85) |  | herbicidal activity against ABUTH (Abutilon theophrasti [7]): very good (a very good herbicidal activity is given at values of at least 85) |
| COC[C@H]1CCCN1c1nc(N)nc(Nc2c(F)c(F)c(F)c(F)c2F)n1 [Example 25] | good to very good | good to very good | good to very good | good to very good | very good (a very good herbicidal activity is given at values of at least 85) | herbicidal activity against AMARE (Amaranthus retroflexus [2]): very good (a very good herbicidal activity is given at values of at least 85); herbicidal activity against SETFA (Setaria faberi [3]; 0.500 kg/ha): very good (a very good herbicidal activity is given at values of at least 85) |
| COC[C@H]1CCCN1c1nc(N)nc(Nc2c(F)c(F)cc(F)c2F)n1 [Example 26] | very good (a very good herbicidal activity is given at values of at least 85) | very good (a very good herbicidal activity is given at values of at least 85) | very good (a very good herbicidal activity is given at values of at least 85) | very good (a very good herbicidal activity is given at values of at least 85) | very good (a very good herbicidal activity is given at values of at least 85) | herbicidal activity against AMARE (Amaranthus retroflexus [2]): very good (a very good herbicidal activity is given at values of at least 85); herbicidal activity against SETFA (Setaria faberi [3]; 0.500 kg/ha): very good (a very good herbicidal activity is given at values of at least 85) |
| CON(C)c1nc(N)nc(Nc2c(F)c(F)c(F)c(F)c2F)n1 [Example 27] | very good (a very good herbicidal activity is given at values of at least 85) | very good (a very good herbicidal activity is given at values of at least 85) | very good (a very good herbicidal activity is given at values of at least 85) | very good (a very good herbicidal activity is given at values of at least 85) |  | herbicidal activity against ABUTH (Abutilon theophrasti [7]): very good (a very good herbicidal activity is given at values of at least 85); herbicidal activity against ABUTH (Abutilon theophrasti [1]; 0.500 kg/ha): very good (a very good herbicidal activity is given at values of at least 85); pest or weed control at 500 g/ha (Amaranthus retroflexus [2]): ≥ 85%; herbicidal activity against SETFA (Setaria faberi [3]; 0.500 kg/ha): very good (a very good herbicidal activity is given at values of at least 85) |
| COC[C@@H]1CCCN1c1nc(N)nc(Nc2c(F)c(F)c(F)c(F)c2F)n1 [Example 29] |  | very good (a very good herbicidal activity is given at values of at least 85) |  | very good (a very good herbicidal activity is given at values of at least 85) | very good (a very good herbicidal activity is given at values of at least 85) | herbicidal activity against AMARE (Amaranthus retroflexus [2]): very good (a very good herbicidal activity is given at values of at least 85) |
| COC[C@@H]1CCCN1c1nc(N)nc(Nc2c(F)c(F)cc(F)c2F)n1 [Example 30] |  | very good (a very good herbicidal activity is given at values of at least 85) |  | very good (a very good herbicidal activity is given at values of at least 85) | very good (a very good herbicidal activity is given at values of at least 85) | herbicidal activity against AMARE (Amaranthus retroflexus [2]): very good (a very good herbicidal activity is given at values of at least 85) |
| COCC1CCCN1c1nc(N)nc(Nc2c(F)c(F)c(F)c(F)c2F)n1 (stereo not drawn) [Example 31] |  | good to very good |  | good to very good | very good (a very good herbicidal activity is given at values of at least 85) |  |
| COCC1CCCN1c1nc(N)nc(Nc2c(F)c(F)cc(F)c2F)n1 (stereo not drawn) [Example 32] | good to very good | good to very good | good to very good | good to very good | very good (a very good herbicidal activity is given at values of at least 85) | pest or weed control at 500 g/ha (Amaranthus retroflexus [2]): ≥ 85%; herbicidal activity against SETFA (Setaria faberi [3]; 0.500 kg/ha): very good (a very good herbicidal activity is given at values of at least 85) |
| CCN(CC)c1nc(N)nc(Nc2c(F)c(F)cc(F)c2F)n1 [Example 36] |  | good to very good |  | good to very good | very good (a very good herbicidal activity is given at values of at least 85) | pest or weed control at 500 g/ha (Amaranthus retroflexus [2]): ≥ 85% |
